Results: publication PMC11818041, “Pilot-Scale Production of Sericin-Derived Oligopeptides (SDOs) from Yellow Silk Cocoons: Peptide Characterization and Specifications” (Foods, 2025)
Like-named read-outs stand apart in the source and are kept apart here. Marks after values point to notes of the source that are not given here. Residues, ends and D or L forms follow the SMILES beside them.

How the values were obtained:
ACE = ACE (Homo sapiens, UniProt P12821); assay: ACE inhibitory activity assay (FAPGG substrate); type: biochemical; settings: for inhibition at 200 µM: read-out: Inhibition (%) ACE
DPP-IV = DPP-IV (Homo sapiens, UniProt P27487); assay: DPP-IV inhibitory activity assay (GPN substrate); type: biochemical; settings: for inhibition at 2500 µM / Inhibition (%) DPP-IV: synthetic peptide at 2.5 mM (final reaction concentration)
[1] = Metal chelating activity (FeCl2/ferrozine); settings: reference against which IC50 values were compared
Description: Following a 3 min dark incubation, 50 μL of 5 mM ferrozine was introduced and incubated for 20 min at ambient temperature in the absence of light. Absorbance was quantified at 562 nm. […] The chelating activity was determined using the following formula:Metal chelating activity (%) = [(Acontrol − Asample)/Acontrol] × 100

[2] = ABTS radical scavenging activity; settings: standard against which IC50 values were compared
Description: The antioxidant activity was evaluated using a modified ABTS assay according to Laosam et al.. Then, ABTS stock solution was prepared by combining 7.0 mM ABTS with 2.6 mM potassium persulfate in 50 mM phosphate buffer (pH 7.4) and incubated in darkness for 12–16 h before use. Subsequently, the analysis was initiated by combining 20 μL of SDOs samples with 1980 μL of ABTS working solution (stock solution diluted with phosphate buffer to achieve an absorbance of 0.740 ± 0.020 at 734 nm). After 5 min of incubation in the dark, the absorbance was measured at 734 nm. […] With the formula below, the radical scavenging activity was calculated:Scavenging activity (%) = [(Acontrol − Asample)/Acontrol] × 100 where Acontrol and Asample represent the absorbance of control and sample, respectively.

[3] = set-up: method as in BIOPEP-UWM database; settings: fragments in brackets, activities listed jointly; ref BIOPEP-UWM database; cited from earlier work
[4] = synthetic peptide at 0.2 mM (final reaction concentration)
[5] = synthetic peptide, read-out: Inhibition (IC50 Value) ACE
[6] = synthetic peptide, read-out: Inhibition (IC50 Value) DPP-IV

Sequence of DPP-IV (P27487 whole entry, species assumed): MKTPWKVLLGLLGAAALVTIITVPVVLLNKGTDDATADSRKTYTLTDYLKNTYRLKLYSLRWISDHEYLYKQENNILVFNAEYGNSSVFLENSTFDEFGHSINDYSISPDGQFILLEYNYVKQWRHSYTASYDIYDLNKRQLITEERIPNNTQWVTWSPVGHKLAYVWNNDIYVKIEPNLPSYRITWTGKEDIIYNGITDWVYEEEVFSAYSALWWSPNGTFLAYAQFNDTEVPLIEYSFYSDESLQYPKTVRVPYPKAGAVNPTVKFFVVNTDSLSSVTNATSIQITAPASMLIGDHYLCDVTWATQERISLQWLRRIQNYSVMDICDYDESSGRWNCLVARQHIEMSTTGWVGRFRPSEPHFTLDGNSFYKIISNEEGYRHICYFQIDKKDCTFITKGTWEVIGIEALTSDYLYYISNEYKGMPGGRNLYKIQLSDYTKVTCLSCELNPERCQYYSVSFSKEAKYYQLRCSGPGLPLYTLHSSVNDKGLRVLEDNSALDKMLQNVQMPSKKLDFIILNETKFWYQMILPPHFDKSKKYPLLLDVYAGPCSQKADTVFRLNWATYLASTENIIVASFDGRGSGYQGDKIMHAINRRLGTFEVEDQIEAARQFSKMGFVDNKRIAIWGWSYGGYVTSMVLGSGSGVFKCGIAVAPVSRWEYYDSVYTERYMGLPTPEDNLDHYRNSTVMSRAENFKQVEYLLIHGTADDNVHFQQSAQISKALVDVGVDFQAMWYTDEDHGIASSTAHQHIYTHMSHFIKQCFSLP
Sequence of ACE (P12821 30-1306, species assumed): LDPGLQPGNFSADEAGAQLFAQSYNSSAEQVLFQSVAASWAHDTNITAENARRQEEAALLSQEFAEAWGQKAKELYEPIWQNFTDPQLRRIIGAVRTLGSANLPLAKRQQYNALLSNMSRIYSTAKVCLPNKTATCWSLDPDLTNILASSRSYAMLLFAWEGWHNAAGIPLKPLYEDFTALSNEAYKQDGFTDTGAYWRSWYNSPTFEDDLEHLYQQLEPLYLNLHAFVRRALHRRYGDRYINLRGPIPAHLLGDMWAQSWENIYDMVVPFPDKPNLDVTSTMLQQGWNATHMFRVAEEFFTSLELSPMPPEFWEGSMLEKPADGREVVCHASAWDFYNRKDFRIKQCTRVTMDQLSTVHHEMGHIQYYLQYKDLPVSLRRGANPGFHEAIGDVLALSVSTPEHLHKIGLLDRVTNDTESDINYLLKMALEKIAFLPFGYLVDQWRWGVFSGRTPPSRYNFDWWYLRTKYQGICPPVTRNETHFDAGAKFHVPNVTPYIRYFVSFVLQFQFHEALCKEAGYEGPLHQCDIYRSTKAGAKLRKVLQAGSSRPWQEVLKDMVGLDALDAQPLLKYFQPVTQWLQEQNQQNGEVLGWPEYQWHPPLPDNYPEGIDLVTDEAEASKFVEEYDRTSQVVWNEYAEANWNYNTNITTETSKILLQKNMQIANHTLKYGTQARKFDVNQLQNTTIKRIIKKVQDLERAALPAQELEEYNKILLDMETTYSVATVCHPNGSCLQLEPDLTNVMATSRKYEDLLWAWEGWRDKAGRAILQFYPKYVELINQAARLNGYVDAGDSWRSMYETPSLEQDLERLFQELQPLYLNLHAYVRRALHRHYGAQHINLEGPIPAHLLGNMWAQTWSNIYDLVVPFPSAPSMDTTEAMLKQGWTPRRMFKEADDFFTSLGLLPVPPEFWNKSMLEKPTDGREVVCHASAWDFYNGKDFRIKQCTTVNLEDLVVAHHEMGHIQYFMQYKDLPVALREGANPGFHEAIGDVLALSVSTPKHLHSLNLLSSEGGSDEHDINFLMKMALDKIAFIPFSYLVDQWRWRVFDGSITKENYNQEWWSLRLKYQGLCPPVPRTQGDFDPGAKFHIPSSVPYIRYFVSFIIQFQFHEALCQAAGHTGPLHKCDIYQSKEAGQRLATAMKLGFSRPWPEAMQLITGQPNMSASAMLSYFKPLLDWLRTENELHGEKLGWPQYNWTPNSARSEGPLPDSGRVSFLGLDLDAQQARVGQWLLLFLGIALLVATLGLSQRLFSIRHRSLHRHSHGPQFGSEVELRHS

Row | Compound | inhibition at 200 µM (ACE; [4]) | inhibition at 2500 µM (DPP-IV) | IC50 (DPP-IV; [6]) | Inhibition (%) DPP-IV (DPP-IV) | other results
1 | CC(C)C[C@H](NC(=O)[C@H](CC(=O)O)NC(=O)[C@H](Cc1ccccc1)NC(=O)[C@H](Cc1ccccc1)NC(=O)[C@@H](N)CCC(=O)O)C(=O)N1CCC[C@H]1C(=O)N[C@@H](Cc1ccc(O)cc1)C(=O)N[C@@H](Cc1c[nH]cn1)C(=O)O (H-EFFDLPYH-OH) | 63.4 ± 1.6% | 45.7 ± 1.86% | 2.76 ± 0.03 mM |  | IC50 (ACE; [5]): 0.158 ± 0.0022 mM
2 | CC(C)C[C@H](NC(=O)[C@H](CO)NC(=O)[C@H](C)NC(=O)[C@H](CCC(=O)O)NC(=O)[C@H](C)NC(=O)[C@@H](N)C(C)C)C(=O)N1CCC[C@H]1C(=O)N[C@@H](CCCNC(=N)N)C(=O)O (H-VAEASLPR-OH) | 3.89 ± 0.61% | 55.2 ± 0.69% | 1.92 ± 0.06 mM |  | 
3 | CC(C)C[C@H](NC(=O)[C@@H](N)Cc1ccc(O)cc1)C(=O)N[C@@H](Cc1ccc(O)cc1)C(=O)N[C@@H](CC(N)=O)C(=O)N[C@@H](C)C(=O)NCC(=O)N[C@@H](C)C(=O)N[C@@H](CCCNC(=N)N)C(=O)O (H-YLYNAGAR-OH) | 89.2 ± 1.07% | 37 ± 0.95% |  |  | IC50 (ACE; [5]): 0.07728 ± 5e-05 mM
4 | N[C@@H](CS)C(=O)N[C@@H](CCC(=O)O)C(=O)N[C@@H](Cc1ccccc1)C(=O)O [CEF] (H-Cys-Glu-Phe-OH) |  | 23.49 ± 0.14% |  |  | inhibition at 200 µM (ACE): 91.67 ± 0.73%; IC50 (ACE; [5]): 0.01486 ± 0.0001 mM
5 | O=C(O)CN(CCN(CC(=O)O)CC(=O)O)CC(=O)O [EDTA] |  |  |  |  | Metal chelating activity, value of the reference [1]: 0.31 mg/mL
6 | CC(C)C[C@H](NC(=O)[C@H](CC(C)C)NC(=O)[C@H](CC(C)C)NC(=O)[C@H](Cc1ccccc1)NC(=O)[C@@H](N)CCC(=O)O)C(=O)N[C@@H](Cc1c[nH]cn1)C(=O)N[C@@H](C)C(=O)O [EFLLLHA] (H-EFLLLHA-OH) | 58.3 ± 0.92% | 40.5 ± 1.74% | 3.57 ± 0.13 mM |  | IC50 (ACE; [5]): 0.1383 ± 0.00104 mM
7 | CC(C)C[C@H](NC(=O)[C@H](CCC(=O)O)NC(=O)[C@H](Cc1ccc(O)cc1)NC(=O)[C@H](Cc1ccccc1)NC(=O)[C@@H](N)CCC(=O)O)C(=O)N[C@@H](C)C(=O)N[C@@H](CCCNC(=N)N)C(=O)O [EFYELAR] (H-EFYELAR-OH) | 34 ± 2.33% | 56.2 ± 1.55% | 1.43 ± 0.03 mM |  | 
8 | CC(C)C[C@H](NC(=O)[C@H](CCC(N)=O)NC(=O)[C@H](CCC(N)=O)NC(=O)[C@H](CO)NC(=O)[C@H](CC(N)=O)NC(=O)[C@@H](N)CCC(=O)O)C(=O)N[C@@H](Cc1c[nH]cn1)C(=O)O [ENSQQLH] (H-ENSQQLH-OH) |  | 40.4 ± 4.54% | 2.54 ± 0.1 mM |  | 
9 | CC(C)C[C@H](NC(=O)[C@H](Cc1c[nH]c2ccccc12)NC(=O)[C@@H](NC(=O)[C@H](C)NC(=O)[C@@H](N)CC(C)C)[C@@H](C)O)C(=O)N1CCC[C@H]1C(=O)N[C@@H](CCCNC(=N)N)C(=O)O [LATWLPR] (H-LATWLPR-OH) | 36.1 ± 0.54% | 47.4 ± 1.73% | 2.03 ± 0.15 mM |  | 
10 | CC(C)C[C@H](N)C(=O)N[C@@H](Cc1ccccc1)C(=O)N[C@@H](CC(=O)O)C(=O)N[C@@H](CCC(N)=O)C(=O)N1CCC[C@H]1C(=O)N[C@@H](Cc1ccc(O)cc1)C(=O)N[C@@H](Cc1ccccc1)C(=O)O [LFDQPYF] (H-LFDQPYF-OH) | 42.4 ± 2.64% | 45 ± 2.04% | 3.17 ± 0.17 mM |  | 
11 | CC(C)C[C@H](NC(=O)[C@H](CC(N)=O)NC(=O)CNC(=O)[C@@H](N)CC(C)C)C(=O)N[C@@H](Cc1ccc(O)cc1)C(=O)N[C@@H](CC(=O)O)C(=O)N[C@@H](Cc1ccc(O)cc1)C(=O)O [LGNLYDY] (H-LGNLYDY-OH) | 58.6 ± 2.61% | 42.88 ± 0.09% | 2.94 ± 0.09 mM |  | IC50 (ACE; [5]): 0.1621 ± 0.00119 mM
12 | CC(C)C[C@H](NC(=O)[C@H](CC(=O)O)NC(=O)[C@H](Cc1ccccc1)NC(=O)[C@@H](N)CC(N)=O)C(=O)N1CCC[C@H]1C(=O)N[C@@H](Cc1ccc(O)cc1)C(=O)N[C@@H](Cc1c[nH]cn1)C(=O)O [NFDLPYH] (H-NFDLPYH-OH) | 69.53 ± 0.03% | 55.54 ± 0.34% | 2.38 ± 0.03 mM |  | IC50 (ACE; [5]): 0.0772 ± 0.0027 mM
13 | Cc1c(C)c2c(c(C)c1O)CCC(C)(C(=O)O)O2 (stereo not shown) [Trolox] |  |  |  |  | ABTS radical scavenging, value of the standard [2]: 0.27 mg/mL
14 | N=C(N)NCCC[C@H](NC(=O)[C@@H]1CCCN1C(=O)[C@H](Cc1ccccc1)NC(=O)[C@H](CCC(=O)O)NC(=O)[C@H](CS)NC(=O)[C@@H](N)Cc1c[nH]c2ccccc12)C(=O)O [WCEFPR] (H-WCEFPR-OH) | 75.4 ± 1.53% | 41.1 ± 0.43% | 2.82 ± 0.22 mM |  | IC50 (ACE; [5]): 0.0212 ± 0.00186 mM
15 | CSCC[C@H](NC(=O)[C@@H](N)Cc1c[nH]c2ccccc12)C(=O)N[C@@H](Cc1c[nH]cn1)C(=O)N[C@H](C(=O)N[C@@H](CCCNC(=N)N)C(=O)O)C(C)C [WMHVR] (H-WMHVR-OH) | 61.3 ± 0.88% | 33.1 ± 2.67% |  |  | IC50 (ACE; [5]): 0.118 ± 0.00182 mM
16 | CC(C)C[C@H](NC(=O)[C@H](CC(=O)O)NC(=O)[C@@H]1CCCN1C(=O)[C@@H](N)Cc1ccc(O)cc1)C(=O)N1CCC[C@H]1C(=O)N[C@@H](Cc1ccc(O)cc1)C(=O)N[C@@H](Cc1c[nH]cn1)C(=O)O [YPDLPYH] (H-YPDLPYH-OH) | 86 ± 1.66% | 56.9 ± 1.47% | 1.35 ± 0.04 mM |  | IC50 (ACE; [5]): 0.0181 ± 5e-05 mM
17 | CC(C)C[C@H](NC(=O)[C@H](CC(=O)O)NC(=O)[C@@H]1CCCN1C(=O)[C@@H](N)Cc1ccc(O)cc1)C(=O)O [YPDL] (H-YPDL-OH) | 11.8 ± 2.26% | 48.3 ± 0.59% |  |  | IC50 (ACE): > 0.2 mM; IC50 (DPP-IV): 2.39 ± 0.06 mM

Row | Compound | inhibition at 200 µM (ACE; [4]) | inhibition at 2500 µM (DPP-IV) | IC50 (DPP-IV; [6]) | Inhibition (%) DPP-IV (DPP-IV) | other results
18 | AEF |  |  |  | 21.93 ± 0.35 ^n % | Inhibition (%) ACE (ACE; [4]): 6.04 ± 1.41 ^o %
19 | DDK |  |  |  | 37.22 ± 0.43 ^ghij % | 
20 | EFF |  |  |  | 30.57 ± 1.97 ^kl % | 
21 | EFL |  |  |  | 38.00 ± 1.38 ^fghi % | 
22 | EFYE |  |  |  | 36.03 ± 0.51 ^ghij % | 
23 | LFD |  |  |  | 33.85 ± 1.27 ^ijk % | 
24 | LFDLMEH [SDO peptide identified in fraction F8] |  |  |  | 37.28 ± 0.69 ^ghij % | 
25 | LGN |  |  |  | 35.84 ± 0.09 ^hij % | Inhibition (%) ACE (ACE; [4]): 44.11 ± 0.96 ^g %
26 | MED |  |  |  | 38.87 ± 0.64 ^fghi % | 
27 | MEH |  |  |  | 37.20 ± 3.18 ^ghij % | Inhibition (%) ACE (ACE; [4]): 11.20 ± 0.04 ^n %
28 | NPR |  |  |  | 36.70 ± 0.09 ^ghij % | Inhibition (%) ACE (ACE; [4]): 17.84 ± 0.68 ^k %
29 | PYH |  |  |  | 29.97 ± 0.60 ^kl % | Inhibition (%) ACE (ACE; [4]): 15.69 ± 1.82 ^klm %
30 | QTA |  |  |  | 10.54 ± 1.90 ^o % | Inhibition (%) ACE (ACE; [4]): 16.48 ± 1.26 ^kl %
31 | QTALVELLQ [SDO peptide identified in fraction F1] |  |  |  | 22.20 ± 0.26 ^n % | 
32 | WGWNPR |  |  |  | 37.45 ± 1.55 ^ghij % | Inhibition (%) ACE (ACE; [4]): 23.69 ± 2.90 ^j %
33 | YDY |  |  |  |  | Previous Reported Bioactivity of the Fragments (BIOPEP-UWM Database) [3]: (YDY) Antioxidative
